Test results from patent US20040029153A1, “Method for estimating metabolic function of xenobiotic and induction thereof” (priority 2000, published 2004).
Read-outs that look alike come from different tables or passages of the source.

Tests used:
CYP1A = test: Induction of ethoxyresorfin dealkylation activity in primary human hepatocytes; type: in vitro ADME; conditions: HH-110
Experimental: After the culture medium was completely removed from the culture plate, Lanford's medium (1 mL) containing 8 μmol/L of 7-ethoxyresorfin and 10 μmol/L of dicumarol was added to each well, and the plate was incubated for 30 minutes in the CO2 incubator to allow reaction. Whole volume of each reaction was recovered and stored at −80° C. until measurement. The cells were washed twice with Lanford's medium, and maintained in the CO2 incubator again or directly used as a sample for another test.
The stored reactions were thawed, and accurately 75 μL of each reaction was removed and mixed with 0.1 mol/L of acetate-sodium acetate buffer (pH 4.4, 25 μL) containing 15 Fishman units of β-glucuronidase [EC 3.2.1.31] and 120 Roy units of sulfatase [EC 3.1.6.1], followed by conjugation reaction for two hours at 37° C. Ethanol (200 μL) was added to the reaction and subjected to centrifugation. The supernatant (200 μL) was transferred to a 96-well microtiter plate. Microplate reader (Labsystems, Fluoroscan Ascent) was used to measure the fluorescence intensity at the wavelength of 590 nm when excited with excitation light at the wavelength of 544 nm. The resorfin production figured out from the result was used to measure the ethoxyresorfin dealkylation activity.
The cells maintained under the conditions considered optimal in Examples 8 and 9 were continued to be added with 1 μmol/L of 3-methylcholanthrene for three days, and the changes in ethoxyresorfin dealkylation activity was investigated. HH-110 cells were used.
Primary human hepatocytes (HH-110) were continued to be loaded with 1 μmol/L of 3-methylcholanthrene for three days between days 4th to 7th post seeding (indicated by a crossbar in the figure), and these cells had been maintained further for five days again in the conventional Lanford's medium. During this period, measurement of ethoxyresorfin dealkylation activity was conducted at 8 times to investigate the changes in the activity. Three samples per condition were measured independently, and the mean values are shown. The standard deviations are indicated by error bar. […]

[1] = tested on: primary human hepatocytes; test: Ethoxycoumarin dealkylation and coumarin conjugation activities in primary human hepatocytes; type: in vitro ADME; conditions: HH-110 and HH-118; benz[a]anthracene 5 μmol/L, 3-methylcholanthrene 2 μmol/L; one day and night
Experimental: Lanford's medium (1 mL) containing 75 μmol/L of 7-ethoxycoumarin was added to each well after the culture medium was removed, and the plate was incubated for two hours in the CO2 incubator to allow reaction. Whole volume of each reaction was recovered and stored at −80° C. until measurement. The cells were washed twice with Lanford's medium, and maintained in the CO2 incubator again or directly used as a sample for another test. The stored reactions were thawed, and 50 μl of the reaction was analyzed by liquid chromatography, ethoxycoumarin dealkylation activity and glucuronate and sulfate conjugation activities were comprehensively estimated based on the production of 7-hydroxycoumarin, 7-hydroxycoumarin glucuronide and 7-hydroxycoumarin sulfate. Herein, 7-ethoxycoumarin is converted to 7-hydroxycoumarin after dealkylation, and then conjugated by glucuronate and sulfate.
The cells maintained under the conditions considered optimal in Examples 8 and 9 were continued to be added with 5 μmol/L of benz[a]anthracene or 2 μmol/L of 3-methylcholanthrene one day and night, and then the changes in ethoxycoumarin dealkylation activity was investigated. HH-110 and HH-118 cells were used.
Three samples per each condition i.e., control (Lane 1), adding of 3-methylcholanthrene (Lane 2) and benz[a]anthracene (Lane 3) which were measured independently, and the mean values are shown. […]

CYP1A1/2 = test: Western blotting of CYP1A protein in cryopreserved primary human hepatocytes; conditions: HH-110 and HH-118; 3-methylcholanthrene 2 μmol/L, benz[a]anthracene 5 μmol/L; one day and night; vs control
CYP3A mRNA = conditions: hepatocytes
CYP3A = test: Induction of testosterone hydroxylation activity in primary human hepatocytes
[2] = tested on: primary human hepatocytes; test: Effect of culture medium components on rifampicin induction of testosterone hydroxylation activity; type: cell-based
CYP3A4 = tested on: CYP3A4
Experimental: The cells in the suspension were seeded in a 12-well culture plate coated with collagen at the density of 6×10^5 cells/well, and the plate was incubated one day and night in the CO2 incubator. Subsequently, the culture medium containing 10% fetal bovine serum was removed, 1 ml of fresh serum-free Lanford's medium was added to each well, and the cells were maintained in the CO2 incubator. The inside of the CO2 incubator used in the present invention was maintained at 37° C. in an atmosphere of 5% […] saturated with vapor.
10 μl of the sample was electrophoresed on polyacrylamide gel, and blotted onto PVDF transfer membrane.

## Cc1ccc2cc3c(ccc4ccccc43)c3c2c1CC3 [3-methylcholanthrene]
CYP1A; 1 μmol/L, added for three days
  ethoxyresorfin dealkylation activity during continued addition: gradually decreased
  time of maximum ethoxyresorfin dealkylation activity: one day after 3-methylcholanthrene was added
CYP1A; after three days of 1 μmol/L
  ethoxyresorfin dealkylation activity after addition was stopped: returned to their original state prior to the addition of the compounds in a day
[1]
  production of 7-hydroxycoumarin, 7-hydroxycoumarin glucronide and 7-hydroxycoumarin sulfate: increases
CYP1A1/2
  CYP1A1/2 expression (western blotting): increased

## c1ccc2cc3c(ccc4ccccc43)cc2c1 [benz[a]anthracene]
[1]
  production of 7-hydroxycoumarin, 7-hydroxycoumarin glucronide and 7-hydroxycoumarin sulfate: increases
CYP1A1/2
  CYP1A1/2 expression (western blotting): increased

## Clc1ccccc1C(c1ccccc1)(c1ccccc1)n1ccnc1 [clotrimazole]
CYP3A mRNA
  CYP3A mRNA level, concentration-dependence of induction: increase of the mRNA level was observed
CYP3A; HH-110, different concentrations
  testosterone hydroxylation activity, concentration-dependence of induction: increase of the testosterone hydroxylation activity was not observed

## C[C@]12CCC(=O)C=C1CC[C@@H]1[C@@H]2[C@@H](O)C[C@@]2(C)[C@H]1CC[C@]2(O)C(=O)CO [hydrocortisone]
[2]; HH-110, hydrocortisone-free vs conventional Landford's medium
  effect of medium component on maintenance of testosterone hydroxylation activity: essential

## CCC1(c2ccccc2)C(=O)NC(=O)NC1=O [phenobarbital]
CYP3A4
  CYP3A4 expression (western blotting): not marked
CYP3A mRNA
  CYP 3A mRNA (CYP3A/β-actin): Increases
CYP3A; HH-110, rifampicin 10 μmol/L, phenobarbital 1 mmol/L, loaded for four days
  day of maximum testosterone hydroxylation activity after addition: 4 days
CYP3A; five donors (HH-018, HH-022, HH-029, HH-110, HH-118), rifampicin 10 μmol/L, phenobarbital 1 mmol/L, four days
  testosterone hydroxylation activity: Increases

## C[C@]12C=CC(=O)C=C1CC[C@@H]1[C@@H]2[C@@H](O)C[C@@]2(C)[C@H]1CC[C@]2(O)C(=O)CO [predonisolone]
[2]; HH-110, 1 μmol/L in medium, rifampicin 10 μmol/L for three days
  induction of testosterone hydroxylation activity with glucocorticoid instead of hydrocortisone in medium: can be observed

## cholera toxin
[2]
  effect of medium component on induction of testosterone hydroxylation activity: enhancing factors

B1: Prolactin: component of Landford's medium (protein, UniProt P01239 31-229, looked up)
Prolactin: TPVCPNGPGNCQVSLRDLFDRAVMVSHYIHDLSSEMFNEFDKRYAQGKGFITMALNSCHTSSLPTPEDKEQAQQTHHEVLMSLILGLLRSWNDPLYHLVTEVRGMKGAPDAILSRAIEIEEENKRLLEGMEMIFGQVIPGAKETEPYPVWSGLPSLQTKDEDARYSAFYNLLHCLRRDSSKIDTYLKLLNCRIIYNNNC
[2]; HH-110, component-free vs conventional Landford's medium, induction by rifampicin
  effect of medium component on induction of testosterone hydroxylation activity: enhancing factors
